# Experimental data as given in article PMC9404653, “EphA4 targeting agents protect motor neurons from cell death induced by amyotrophic lateral sclerosis -astrocytes” (iScience, 2022).
# Like-named read-outs stand apart in the source and are kept apart here. Non-standard residues stand in square brackets, D forms with d. Residues, ends and D or L forms follow the SMILES beside them. *: point of attachment. Cyclohexanoyl(1S,3S-3-NH2) = N[C@H]1CCC[C@H](C(=O)*)C1; Trp(5-OH) = N[C@@H](Cc1c[nH]c2ccc(O)cc12)C(=O)O; NH(4-morpholinophenyl) = c1cc(N2CCOCC2)ccc1N*; Bip = N[C@@H](Cc1ccc(-c2ccccc2)cc1)C(=O)O; hArg = N=C(N)NCCCC[C@H](N)C(=O)O; X1 = c1cc(N2CCNCC2)ccc1N*
# B1: ephrinA4: intact ephrin ligand of EphA4 (protein, UniProt P52798 26-170, looked up)
# Ephrin-A4: LRHVVYWNSSNPRLLRGDAVVELGLNDYLDIVCPHYEGPGPPEGPETFALYMVDWPGYESCQAEGPRAYKRWVCSLPFGHVQFSEKIQRFTPFSLGFEFLPGETYYYISVPTPESSGQCLRLQVSVCCKERKSESAHPVGSPGES
# B2: ephrinA5: intact ephrin ligand of EphA4 (protein, UniProt P52803 21-203, looked up)
# Ephrin-A5: QDPGSKAVADRYAVYWNSSNPRFQRGDYHIDVCINDYLDVFCPHYEDSVPEDKTERYVLYMVNFDGYSACDHTSKGFKRWECNRPHSPNGPLKFSEKFQLFTPFSLGFEFRPGREYFYISSAIPDNGRRSCLKLKVFVRPTNSCMKTIGVHDRVFDVNDKVENSLEPADDTVHESAEPSRGEN
# How the values were obtained:
# [1] = Aqueous solubility by 1H NMR; format: physicochemical; details: water; determined by 1H NMR
# [2] = tested on: motor neurons co-cultured with patient iAstrocytes (sALS, mutant SOD1); assay: Patient iAstrocyte:motor neuron co-culture, motor neuron survival; details: 10 μM, sALS patient iAs (ALS1; second patient line Figure S3)
# Description: Here, we tested the effectiveness of synthetic agonists by co-culturing patient iAs (2 sALS and 3 mtSOD1, Sup. Table 1) and mouse motor neurons in the presence of 123C4 (Figure 5A). Three days following co-culture surviving motor neurons were imaged (Figure 5B).
# At the time of motor neuron seeding, the drug was removed via aspiration, and motor neurons in freshly prepared media were cultured on the iAs monolayer. In addition, 123C4 was also added at the time of co-culture as described in Figure 5A.
# To accommodate a compound screen of this size, co-culture assays were adapted to a 384 well format.
# Induced Astrocytes were generated by seeding a low quantity of NPCs into astrocyte medium (DMEM media containing 10% FBS and 0.2% N2) for five days. Following differentiation, iAstrocytes were lifted and seeded into a 96 well (10,000 cells per well) or 384 well (2500 cells per well) plate. Differentiations were repeated at separate passages and each differentiation was counted as an independent experiment.
# Cells are sorted through a 100 μm tip with sheath pressure of 27. GFP + motor neurons were seeded in a 96 well plate (10,000 cells per well) or 384 well (1,000 cells per well) in triplicate for each condition. Co-cultures were imaged with InCell Analyzer 6000 automated microscopy system for up to six days. […]
# [3] = target: T1, EphA4 ligand-binding domain (Homo sapiens, UniProt P54764); assay: Isothermal titration calorimetry (ITC) vs EphA4-LBD; details: for N (ITC stoichiometry): ITC curve, Figure 2C/2D; for Kd: ITC, 25°C, 25 mM Tris pH 7.5, 150 mM NaCl, 1% DMSO, mean ± SE, n = 2
# T1 sequence (P54764 30-209 limits assumed): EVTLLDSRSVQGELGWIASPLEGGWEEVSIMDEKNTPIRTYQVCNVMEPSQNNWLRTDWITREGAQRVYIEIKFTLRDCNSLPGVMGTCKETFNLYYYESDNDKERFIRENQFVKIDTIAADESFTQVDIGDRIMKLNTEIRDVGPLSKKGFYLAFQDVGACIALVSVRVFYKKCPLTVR
# Description: (§1) Previously, we deployed the HTS by NMR (High-throughput Screening by Nuclear Magnetic Resonance) approach targeting the EphA4 ligand-binding domain to identify possible ligands from a tri-peptide positional scanning library consisting of ∼125,000 agents ([Wu et al., 2013]). Initial screen and subsequent structure-activity relationships studies lead to agent 123C4 (Table 1), with an affinity for the isolated EphA4 ligand-binding domain (LBD) of ∼400 nM by isothermal titration calorimetry (ITC) ([Wu et al., 2013], [2017]). In follow-up studies, we derived a new combinatorial library based on the critical N-terminal aliphatic amine of 123C4 (a common feature also of antagonistic peptides) ([Olson et al., 2016]; [Wu et al., 2013]) and exploited our previous experience with the fHTS by NMR ([Baggio et al., 2017]), we rapidly identified a new hit molecule ([Baggio et al., 2021]). We also developed an efficient strategy to anticipate if ligand binding would induce changes in EphA4 conformation that are more compatible with agonist versus antagonist binding ([Baggio et al., 2021]). This was accomplished by protein NMR using EphA4-LBD that is uniformly labeled with ^13C^ε-methionine ([Wu et al., 2017]). […] In particular, EphA4 residues Met 164, Met 60 (in the binding site), and Met 115 are located in the D-E loop, J-K loop, and G-H loop of the EphA4-LBD, respectively (Figures 1A-1C). […] For example, we reported that the 13mer antagonistic cyclic peptide APY-d3 ([Olson et al., 2016]) induces changes not only in binding site Met 164 and Met 60 resonances, but also in Met 115, located in the G-H loop, that is at the EphA4-LBD dimerization interface (Figure 1D). […] With these considerations in mind, ligand 150D4 was previously derived as described in our recent studies (Table 1; [Baggio et al., 2021]). […] Dissociation constant determination was obtained via isothermal titration calorimetry (ITC) measurements (Table 1, Figure 2). Similarly, selectivity studies were performed via ITC and ligand-binding domain constructs representing the two most closely related Eph domains, namely EphA3 and EphA2 (Table 1). […] These studies culminated in the identification of agonistic agents targeting the EphA4 ligand-binding domain.
# Isothermal titration calorimetry measurements were performed using the Affinity ITC Autosampler from TA Instruments (New Castle, DE). The titrations were performed in a reverse fashion by titrating the protein into the ligand solution. […] Each titration was performed twice and individually using the ITCRun software, analyzed using NanoAnalyze software (TA Instruments, New Castle, DE) and subsequently exported into Microsoft Excel. […]
# EphA4-LBD = target: T2, EphA4-LBD (Homo sapiens, UniProt P54764); assay: 2D [13C,1H] NMR chemical shift perturbation of 13Cε-Met labeled EphA4-LBD; format: binding; details: for Chemical shift perturbation to Met 115 (G-H loop): 13Cε-Met labeled EphA4-LBD; for Δδ Met 60 / Δδ Met 164: weight average 1H/13C chemical shift perturbation, 20 μM EphA4-LBD, 298 K
# T2 construct: Met labeled EphA4-LBD (29-209) (20 μM) in absence (blue)
# T2 sequence (P54764 29-209): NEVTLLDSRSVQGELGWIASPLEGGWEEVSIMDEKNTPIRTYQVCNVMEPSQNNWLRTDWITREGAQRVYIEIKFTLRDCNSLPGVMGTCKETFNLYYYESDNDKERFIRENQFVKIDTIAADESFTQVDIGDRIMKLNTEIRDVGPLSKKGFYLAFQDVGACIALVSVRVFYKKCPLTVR
# Description: as §1
# NMR spectra were acquired on Bruker Avance III 700MHz spectrometer equipped with a TCI cryoprobe. All NMR data were processed and analyzed using TOPSPIN 3.6.1 (Bruker, Billerica, MA, USA). 2D-[^13C,^1H]-HSQC experiments were acquired with 20 μM proteins using 16 scans with 2,048 and 256 complex data points in the ^1H and […] dimensions, respectively, at 298 K. Chemical shift changes (Δδ) in the 2D [^13C, ^1H] spectra were calculated as weight average perturbations observed in the ^1H and ^13C dimensions using the following Equation: Δδ=1/2∗[(Δ^1H)^2+(0.3∗Δ^13C)^2]
# [4] = target: ephrinA4 or ephrinA5 (Homo sapiens) (UniProt P52803); details: cited from earlier work
# [5] = target: T1, EphA4 ligand-binding domain; details: ref Bowden et al., 2009a, 2009b, read-out: Affinity of intact ephrin ligands for EphA4; cited from earlier work
Molecule,solubility [1] [mM],Motor neuron survival [2],N (ITC stoichiometry) [3],Kd [3] [nM],Chemical shift perturbation to Met 115 (G-H loop) (EphA4-LBD),Δδ Met 60 (EphA4-LBD),Δδ Met 164 (EphA4-LBD),Kd [4] [nM],Kd [5] [nM]
"C[C@@H](NC(=O)[C@H](CCCCNC(=N)N)NC(=O)[C@H](Cc1ccc(-c2ccccc2)cc1)NC(=O)[C@H](Cc1c[nH]c2ccc(O)cc12)NC(=O)[C@H]1CCC[C@H](N)C1)C(=O)Nc1ccc(N2CCOCC2)cc1 [150E7, (1S,3S)-N-((S)-1-(((S)-3-([1,1'-biphenyl]-4-yl)-1-(((S)-6-guanidino-1-(((R)-1-((4-morpholinophenyl)amino)-1-oxopropan-2-yl)amino)-1-oxohexan-2-yl)amino)-1-oxopropan-2-yl)amino)-3-(5-hydroxy-1H-indol-3-yl)-1-oxopropan-2-yl)-3-aminocyclohexane-1-carboxamide] ({Cyclohexanoyl(1S,3S-3-NH2)}-[Trp(5-OH)][Bip][hArg][dA]-{NH(4-morpholinophenyl)})",> 50,effective at preventing motor neuron death,0.99,129 ± 4.5,do not alter loop G-H,+++ (+++ > 0.1 ppm),++ (0.2 ppm < ++ < 0.25 ppm),,
"N=C(N)NCCCC[C@H](NC(=O)[C@H](Cc1ccc(-c2ccccc2)cc1)NC(=O)[C@H](Cc1c[nH]c2ccc(O)cc12)NC(=O)[C@H]1CCC[C@H](N)C1)C(=O)NCC(=O)Nc1ccc(N2CCNCC2)cc1 [150E8, (1S,3S)-N-((S)-1-(((S)-3-([1,1'-biphenyl]-4-yl)-1-(((S)-6-guanidino-1-oxo-1-((2-oxo-2-((4-(piperazin-1-yl)phenyl)amino)ethyl)amino)hexan-2-yl)amino)-1-oxopropan-2-yl)amino)-3-(5-hydroxy-1H-indol-3-yl)-1-oxopropan-2-yl)-3-aminocyclohexane-1-carboxamide] ({Cyclohexanoyl(1S,3S-3-NH2)}-[Trp(5-OH)][Bip][hArg]G-X1)",> 50,effective at preventing motor neuron death,1.01,94.3 ± 4.4,do not alter loop G-H,++ (0.05 ppm < ++ < 0.1 ppm),++++ (++++ > 0.3 ppm),,
EphA4 ligand-binding domain (from UniProt P54764),,,,,,,,360,
B1,,,,,,,,,~360
B2,,,,,,,,,~360
